Measured values reported in patent publication US11285127B2, “Compositions and methods for lowering triglycerides without raising LDL-C levels in a subject on concomitant statin therapy” (Amarin Pharmaceuticals Ireland Limited, priority 2013, dated 2022).

Experiments:
Type in all cases: in vivo, human
[1] = test system: patients with fasting triglyceride levels >200 mg/dl and <500 mg/dl despite statin therapy; assay: 12-week study: apolipoproteins (Apo A-1, Apo B, ratio) and lipoprotein(a); conditions: for Apo A1 Week 12 EP Median (IQR) / Apo B Week 12 EP Median (IQR) / Apo B/Apo A1 ratio Week 12 EP Median (IQR) / Lp (a) Week 12 EP Median (IQR) / Apo A1 Percent change from Baseline Median (IQR) / Apo B Percent change from Baseline Median (IQR) / Apo B/Apo A1 ratio Percent change from Baseline Median (IQR) / Lp (a) Percent change from Baseline Median (IQR) / Apo A1 Difference from placebo Estimated median / Apo B Difference from placebo Estimated median / Apo B/Apo A1 ratio Difference from placebo Estimated median / Lp (a) Difference from placebo Estimated median: MITT; for Apo A1 Percent change from Baseline Median (IQR) / Apo B Percent change from Baseline Median (IQR) / Apo B/Apo A1 ratio Percent change from Baseline Median (IQR) / Lp (a) Percent change from Baseline Median (IQR): Week 12 endpoint; for Apo A1 Difference from placebo Estimated median / Apo B Difference from placebo Estimated median / Apo B/Apo A1 ratio Difference from placebo Estimated median / Lp (a) Difference from placebo Estimated median: percent change from baseline to Week 12 endpoint
From the text: (§1) Parameters (a)-(z) can be measured in accordance with any clinically acceptable methodology. For example, triglycerides, total cholesterol, HDL-C and fasting blood sugar can be sample from serum and analyzed using standard photometry techniques. VLDL-TG, LDL-C and VLDL-C can be calculated or determined using serum lipoprotein fractionation by preparative ultracentrifugation and subsequent quantitative analysis by refractometry or by analytic ultracentrifugal methodology. Apo A1, Apo B and hsCRP can be determined from serum using standard nephelometry techniques. Lipoprotein (a) can be determined from serum using standard turbidimetric immunoassay techniques. LDL particle number and particle size can be determined using nuclear magnetic resonance (NMR) spectrometry. Remnants lipoproteins and LDL-phospholipase A2 can be determined from EDTA plasma or serum and serum, respectively, using enzymatic immunoseparation techniques. Oxidized LDL, intercellular adhesion molecule-1 and interleukin-2 levels can be determined from serum using standard enzyme immunoassay techniques. These techniques are described in detail in standard textbooks, for example Tietz Fundamentals of Clinical Chemistry, 6th Ed. (Burtis, Ashwood and Borter Eds.), WB Saunders Company.
(§2) A multi-center, placebo-controlled, randomized, double-blind, 12-week study was performed to evaluate the efficacy and safety of >96% E-EPA in patients with fasting triglyceride levels >200 mg/dl and <500 mg/dl despite statin therapy (the mean of two qualifying entry values needed to be >185 mg/dl and at least one of the values needed to be >200 mg/dl). The primary objective of the study was to determine the efficacy of >96% E-EPA 2 g daily and 4 g daily, compared to placebo, in lowering fasting TG levels in patients with high risk for cardiovascular disease and with fasting TG levels 200 mg/dl and <500 mg/dl, despite treatment to LDL-C goal on statin therapy.
The primary efficacy variable for the double-blind treatment period was percent change in TG from baseline to Week 12 endpoint. The secondary efficacy variables for the double-blind treatment period included the following: • Percent changes in total cholesterol (TC), high-density lipoprotein cholesterol (HDL-C), LDL-C, calculated non-HDL-C, and very low-density lipoprotein cholesterol (VLDL-C) from baseline to Week 12 endpoint; • Percent change in very low-density lipoprotein TG from baseline to Week 12; • Percent changes in apolipoprotein A-I (Apo A-1), apolipoprotein B (Apo B), and Apo A-1/Apo B ratio from baseline to Week 12; • Percent changes in lipoprotein(a) from baseline to Week 12; • Percent changes in LDL particle number and size, measured by nuclear magnetic resonance, from baseline to Week 12; • Percent change in remnant-like particle cholesterol from baseline to Week 12; • Percent change in oxidized LDL from baseline to Week 12; • Changes in FPG and HbA1c from baseline to Week 12; • Change in insulin resistance, as assessed by the homeostasis model index insulin resistance, from baseline to Week 12; • Percent change in lipoprotein associated phospholipase A2 (Lp-PLA2) from baseline to Week 12; • Change in intracellular adhesion molecule-1 from baseline to Week 12; • Change in interleukin-2 from baseline to Week 12; • Change in plasminogen activator inhibitor-1 from baseline to Week 12. Note: this parameter will only be collected at sites with proper storage conditions; • Change in hsCRP from baseline to Week 12; and • Change in plasma concentration and red blood cell membrane content of fatty acid from baseline to Week 12 including EPA, docosapentaenoic acid (DPA), docosahexaenoic acid (DHA), arachidonic acid (AA), dihomo-γ-linolenic acid (DGLA), the ratio of EPA/AA, ratio of oleic acid/stearic acid (OA/SA), and the ratio of total omega-3 acids over total omega-6 acids. […]

[2] = test system: patients with fasting triglyceride levels >200 mg/dl and <500 mg/dl despite statin therapy; assay: 12-week study: oxidized LDL; conditions: MITT; for Oxidized LDL Percent change from Baseline Median (IQR): Week 12 endpoint; for Oxidized LDL Difference from placebo Estimated median: percent change from baseline to Week 12 endpoint
From the text: as §1, §2
(§3) The secondary objectives of this study were the following: • 1. To determine the safety and tolerability of >96% E-EPA 2 g daily and 4 g daily; • 2. To determine the effect of >96% E-EPA on lipid and apolipoprotein profiles including total cholesterol (TC), non-high-density lipoprotein cholesterol (non-HDL-C), low density lipoprotein cholesterol (LDL-C), high density lipoprotein cholesterol (HDL-C), and […]; • 3. To determine the effect of >96% E-EPA on lipoprotein associated phospholipase A2 (Lp-PLA2) from baseline to week 12; • 4. To determine the effect of >96% E-EPA on low-density lipoprotein (LDL) particle number and size; • 5. To determine the effect of >96% E-EPA on oxidized LDL; • 6. To determine the effect of >96% E-EPA on fasting plasma glucose (FPG) and hemoglobin A1c (HbA1c); • 7. To determine the effect of >96% E-EPA on insulin resistance; • 8. To determine the effect of >96% E-EPA on high-sensitivity C-reactive protein (hsCRP); • 9. To determine the effects of >96% E-EPA 2 g daily and 4 g daily on the incorporation of fatty acids into red blood cell membranes and into plasma phospholipids; • 10. To explore the relationship between baseline fasting TG levels and the reduction in fasting TG levels; and • 11. To explore the relationship between changes of fatty acid concentrations in plasma and red blood cell membranes, and the reduction in fasting TG levels.
(§4) The primary efficacy variable for the double-blind treatment period was percent change in TG from baseline to Week 12 endpoint. […]

[3] = test system: patients with fasting triglyceride levels >200 mg/dl and <500 mg/dl despite statin therapy; assay: 12-week study: lipoprotein associated phospholipase A2 (Lp-PLA2); conditions: MITT; for Lp-PLA2 Percent change from Baseline Median (IQR): Week 12 endpoint; for Lp-PLA2 Difference from placebo Estimated median: percent change from baseline to Week 12 endpoint
From the text: as §1, §2, §3, §4

[4] = IPE 4 g/day (n = 216), 12 weeks, patients with lipoprotein data

CC/C=C\C/C=C\C/C=C\C/C=C\C/C=C\CCCC(=O)OCC [AMR101, ethyl eicosapentaenoate]
Apo A1 Week 12 EP Median (IQR) ([1]; AMR101 2 g/d + statin): 141.0 (26.0) mg/dL
Apo B Week 12 EP Median (IQR) ([1]; AMR101 2 g/d + statin): 95.0 (24.0) mg/dL
Apo B/Apo A1 ratio Week 12 EP Median (IQR) ([1]; AMR101 2 g/d + statin): 0.7 (0.2)
Lp (a) Week 12 EP Median (IQR) ([1]; AMR101 2 g/d + statin): 12.0 (33.0) mg/dL
Apo A1 Percent change from Baseline Median (IQR) ([1]; AMR101 2 g/d + statin): 2.0 (13.0) %
Apo B Percent change from Baseline Median (IQR) ([1]; AMR101 2 g/d + statin): 1.6 (20.7) %
Apo B/Apo A1 ratio Percent change from Baseline Median (IQR) ([1]; AMR101 2 g/d + statin): 0.1 (18.3) %
Lp (a) Percent change from Baseline Median (IQR) ([1]; AMR101 2 g/d + statin): 0.0 (24.9) %
Apo A1 Difference from placebo Estimated median ([1]; AMR101 2 g/d + statin): −1.7%
Apo B Difference from placebo Estimated median ([1]; AMR101 2 g/d + statin): −3.8%
Apo B/Apo A1 ratio Difference from placebo Estimated median ([1]; AMR101 2 g/d + statin): −2.0%
Lp (a) Difference from placebo Estimated median ([1]; AMR101 2 g/d + statin): 0.0%
Apo A1 Week 12 EP Median (IQR) ([1]; AMR101 4 g/d + statin): 137.0 (29.0) mg/dL
Apo B Week 12 EP Median (IQR) ([1]; AMR101 4 g/d + statin): 90.0 (25.0) mg/dL
Apo B/Apo A1 ratio Week 12 EP Median (IQR) ([1]; AMR101 4 g/d + statin): 0.7 (0.2)
Lp (a) Week 12 EP Median (IQR) ([1]; AMR101 4 g/d + statin): 9.0 (31.0) mg/dL
Apo A1 Percent change from Baseline Median (IQR) ([1]; AMR101 4 g/d + statin): −2.9 (12.6) %
Apo B Percent change from Baseline Median (IQR) ([1]; AMR101 4 g/d + statin): −2.2 (16.4) %
Apo B/Apo A1 ratio Percent change from Baseline Median (IQR) ([1]; AMR101 4 g/d + statin): −0.7 (20.3) %
Lp (a) Percent change from Baseline Median (IQR) ([1]; AMR101 4 g/d + statin): 0.0 (10.0) %
Apo A1 Difference from placebo Estimated median ([1]; AMR101 4 g/d + statin): −6.9%
Apo B Difference from placebo Estimated median ([1]; AMR101 4 g/d + statin): −9.3%
Apo B/Apo A1 ratio Difference from placebo Estimated median ([1]; AMR101 4 g/d + statin): −2.4%
Lp (a) Difference from placebo Estimated median ([1]; AMR101 4 g/d + statin): 0.0%
Apo-B, Change From Baseline, % (median) [1, 4]: −2.2%
Apo-B, End of Treatment (median) [1, 4]: 90.0 mg/dL
Apo-B, Median Change From Baseline IPE 4 g/day vs Placebo, % ([1]; IPE 4 g/day vs placebo, 12 weeks, Hodges-Lehmann median): −8.8%
Oxidized LDL Week 12 EP Median (IQR) ([2]; AMR101 2 g/d + statin): 55.8 (22.8) U/L
Oxidized LDL Percent change from Baseline Median (IQR) ([2]; AMR101 2 g/d + statin): 2.6 (18.3) %
Oxidized LDL Difference from placebo Estimated median ([2]; AMR101 2 g/d + statin): −5.8%
Oxidized LDL Week 12 EP Median (IQR) ([2]; AMR101 4 g/d + statin): 51.4 (17.5) U/L
Oxidized LDL Percent change from Baseline Median (IQR) ([2]; AMR101 4 g/d + statin): −4.8 (19.6) %
Oxidized LDL Difference from placebo Estimated median ([2]; AMR101 4 g/d + statin): −13.3%
Lp-PLA2 Week 12 EP Median (IQR) ([3]; AMR101 2 g/d + statin): 183.5 (57.5) ng/mL
Lp-PLA2 Percent change from Baseline Median (IQR) ([3]; AMR101 2 g/d + statin): −1.8 (23.1) %
Lp-PLA2 Difference from placebo Estimated median ([3]; AMR101 2 g/d + statin): −8.0%
Lp-PLA2 Week 12 EP Median (IQR) ([3]; AMR101 4 g/d + statin): 160.0 (57.0) ng/mL
Lp-PLA2 Percent change from Baseline Median (IQR) ([3]; AMR101 4 g/d + statin): −12.8 (18.5) %
Lp-PLA2 Difference from placebo Estimated median ([3]; AMR101 4 g/d + statin): −19.0%
